Data taken from PMC3138527 (2011).

Legend:
Assay type in all cases: biochemical
[1] = biological target: T1, triosephosphate isomerase (Tbb TIM) (Trypanosoma brucei, UniProt P04789); test: coupled enzyme assay
[2] = biological target: T1, triosephosphate isomerase (Tbb TIM); test: 1H NMR turnover in D2O
[3] = biological target: T1, triosephosphate isomerase (Tbb TIM); test: activation of the TIM-catalyzed reaction of [[…]-13C]-GA in D2O followed by 1H NMR

T1 sequence (P04789 whole entry): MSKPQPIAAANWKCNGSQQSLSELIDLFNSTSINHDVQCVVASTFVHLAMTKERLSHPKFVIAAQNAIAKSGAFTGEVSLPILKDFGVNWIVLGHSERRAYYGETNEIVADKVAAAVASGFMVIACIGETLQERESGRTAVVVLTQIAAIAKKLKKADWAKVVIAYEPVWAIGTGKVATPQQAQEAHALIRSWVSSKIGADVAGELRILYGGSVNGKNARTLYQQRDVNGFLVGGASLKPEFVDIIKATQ

O=C[C@H](O)COP(=O)(O)O [GAP, (R)-glyceraldehyde 3-phosphate]
Km [1]: 250 µM

O=CCO [[1-^13C]-GA, glycolaldehyde]
1H NMR turnover in D2O; kcat/Km with saturating phosphite [2]: 64 ± 6 M⁻¹ s⁻¹

O=[PH](O)O [phosphite dianion]
Kd [3]: 19 ± 3 mM
